Reference: patent publication US9426950B2, “Production of Deschampsia antartica in bioreactors” (priority 2012, dated 2016)

Assays:
D. antarctica explants [1] = assay: Effect of growth regulators on D. antarctica's morphogenic response and biomass production in bioreactors (SIT); assay type: in vivo, Deschampsia antarctica; details: for type of morphogenic response (roots / shoots): AIB with BAP or alone, BAP alone or ratio favoring BAP; for reproduction rate / organogenic response: SIT method (FIG. 7); for survival of explants compared with the control treatment: growth regulators in the culture medium, bioreactors (FIG. 6); for biomass production: treatments supplemented with growth regulators (FIG. 9)
Source text: In order to determine the appropriate composition of growth regulators for explant propagation and to establish the differences in the physical state of the liquid culture medium compared to the semisolid medium, a comparative study was done on the effect of growth regulators on the culture medium using the SIT method and the conventional propagation method, SSS. To determine the growth regulators' effect on D. antarctica's morphogenic response and biomass formation, a study was done on the effect of combining the cytokinin 6-benzylaminopurine (6-BAP) (0.0; 0.5; 1.0; and 3.0 mgL-1) with the auxin indolbutyric acid (AIB) (0.0; 0.1; 0.25; and 0.5 mgL^−1). Likewise, a study was done of the effect of a set concentration of gibberellic acid (3 mgL-1) combined with the auxins and cytokinins and their isolated effect in the culture medium. Gibberellic acid is associated with the elongation of tissues, and it could play a significant role in biomass growth.
For each bioreactor, 50 to 60 explants with the phenotype characteristics indicated in the osmotic agent test were used in 1000 ml of nutritive medium for each condition, keeping an initial treatment weight of 2 grams. For the SSS method, 25 explants were used in Petri dishes with 40 ml of a medium gelled with agar (Gelzan′) at a rate of 2.5 gL^−1.
A 12-hour immersion frequency was used, with immersion times of 3 minutes and aeration times of 5 minutes.
For this test, the total weight of inoculated biomass was adjusted at 2.0 g per bioreactor. Therefore, the number of plants per bioreactor varied, and the distribution of weight and size during inoculation was random. The experimental unit was the explant.
The effect of the growth regulators was evaluated with the following variables: Increase in fresh weight (FW) per treatment, increase in fresh weight/explant, reproduction rate, survival of explants, and degree of oxidation; all of the same criteria used in the test with osmotic agents.
A sample of 25 explants was taken for each treatment in order to measure the different variables.

D. antarctica explants [2] = assay: Effect of osmoregulating agents on D. antarctica explants cultivated in temporary immersion bioreactors; assay type: in vivo; details: glucose 5 gL−1; mannitol 5 gL−1; PEG 5 gL−1 and 20 gL−1 (FIG. 4)
D. antarctica explants [3] = assay: as above; assay type: in vivo; details: for fresh weight: glucose 5 gL−1 and 20 gL−1, sodium chloride 5 gL−1 (FIG. 5); for degree of oxidation (scale of Table 1): in vivo
Source text: The Deschampsia antarctica plants were reproduced in bioreactors with a liquid culture medium. The nutritive growth conditions were formulated using the inorganic salts proposed by (Murashige, 1973) (MS), supplemented with saccharose 30 gL^−1. In order to determine the conditions needed to obtain high growth and morphophysiological development rates for the tissues, an evaluation was done of the immersion frequency conditions and the addition of osmotic and growth regulating agents.
The regulation of the culture medium's hydric potential determines the quality of the morphogenic response of the plants being cultivated in vitro, especially in systems using liquid culture media (Hua et at, 2010; Stanly et al., 2010). The experiment consisted of evaluating the effect of osmoregulating agents at different concentrations [mannitol (10 and 20 gL-1), glucose (5 and 20 gL-1), polyethylene glycol (5 and 10 gL^−1), and NaCl (5, 10, and 20 gL-1)] on the morphogenic response and biomass production of D. antarctica.
In each bioreactor, 100 plants from the semisolid culture (SSS) that were more than 2 cm tall, with well-developed, expanded leaves, were inoculated in triplicate. The dead leaves and oxidized tissue that grows around the crown of the plants were removed. The bioreactors' initial volume was adjusted to 1000 ml per cultivation jar. A 12-hour immersion frequency was used, with an immersion time of 300 seconds and an aeration time of 60 minutes.
The average initial weight of the explants in each treatment was taken. The repetitions were distributed randomly in the culture trays.
The effect of the osmoregulators was evaluated with the following variables: Increase in fresh weight (FW) per treatment, increase in fresh weight per explant, multiplication rate, explant survival rate, and degree of oxidation.
To calculate survival, live explants were assigned a value of 1, while dead explants were assigned a value of 0. The data was entered into a double-entry matrix where the osmoregulator-type factor is compared to the survival variable. A scale of the explants' damage from phenolization was developed to calculate the degree of oxidation, and is described in Table 1.
The degree of oxidation was calculated using the Townsend and Neuberger formula (1943), which considers the frequency and intensity with which the explant damage occurs, using the equation:
[formula] Where: • P=weighted degree of severity of oxidation • n=number of explants for each category in the scale • v=numerical value of each category • CM=largest category • N=total number of explants in the sample
The percentage of explants oxidized in treatment was also calculated, using the equation:
[formula] Where: • % O=percentage of explants oxidized in each treatment • EO=number of oxidized explants in the sample • ET=total number of explants evaluated in the sample
To determine the average increase in fresh weight (IFW) in each treatment, the initial weight of the inoculated explants in each bioreactor was taken (including an experimental unit) and then averaged. The fresh weight data was collected at the end of each repetition in each treatment. The increase in fresh weight was calculated using the equation: IFW=FWf−FWo Equation 3 Where: • IFW=average fresh weight increase in each treatment • FWf=average final fresh weight of the biomass in each treatment • FWo=average initial fresh weight of the biomass in each treatment
To determine the average fresh weight increase per explant (IFWe) for each treatment, each explant was measured at the beginning and end of the test for each repetition, and the averages were calculated. The fresh weight increase was calculated using the equation: IFWe=FWef−FWeo Equation 4 Where: • IFWe=average fresh weight increase per explant • FWef=average final fresh weight of the biomass in each bioreactor • FWeo=average initial fresh weight of the biomass in each bioreactor. […]

Structure (SMILES) | type of morphogenic response (roots / shoots) (D. antarctica explants [1]) | reproduction rate / organogenic response (D. antarctica explants [1]) | survival of explants compared with the control treatment (D. antarctica explants [1]) | biomass production (D. antarctica explants [1]) | reproduction rate (D. antarctica explants [2]) | fresh weight (D. antarctica explants [3]) | degree of oxidation (scale of Table 1) (D. antarctica explants [3]) | also measured
O=C(O)CCCc1c[nH]c2ccccc12 [AIB, indolbutyric acid] | induced root formation | did not have a significant effect on the reproduction rate | Neither the addition of AIB or BAP, nor the combination of these growth regulators, significantly increased the survival | increased significantly | – | – | – | –
c1ccc(CNc2ncnc3nc[nH]c23)cc1 [BAP, 6-benzylaminopurine] | induced only shoot formation or the development of aerial biomass | sufficient to induce efficient organogenic responses | Neither the addition of AIB or BAP, nor the combination of these growth regulators, significantly increased the survival | increased significantly | – | – | – | –
C=C1C[C@]23C[C@@]1(O)CC[C@H]2[C@@]12C=C[C@H](O)[C@@](C)(C(=O)O1)[C@H]2[C@@H]3C(=O)O [GA3, gibberellic acid] | – | significantly reduced the reproduction rate | significantly lower than the control treatment | – | – | – | – | –
O=C[C@H](O)[C@@H](O)[C@H](O)[C@H](O)CO [glucose] | – | – | – | – | greatest | increased significantly | degree 1 | survival rate (D. antarctica explants [3]; glucose at 5 gL−1, temporary immersion bioreactors): 100%; reduction of the explants' survival rate (D. antarctica explants [3]; glucose concentration increased to 20 gL-1): up to 50%; explants' growth (D. antarctica explants [3]; increased concentrations of glucose): did not significantly affect the explants' growth
OC[C@@H](O)[C@@H](O)[C@H](O)[C@H](O)CO [mannitol] | – | – | – | – | statistically different from the control treatment | – | degree 1 | –
[Cl-].[Na+] [sodium chloride] | – | – | – | – | – | increased significantly | – | decrease of fresh weight (D. antarctica explants [3]; increased concentration of sodium chloride (FIG. 5)): 60%; survival of the explants (D. antarctica explants [3]; three concentrations of sodium chloride studied (5, 10, 20 gL-1)): significantly affected the survival of the explants
